Measured values: patent US8389541B2, “Inhibitors of protein tyrosine kinase activity” (MethylGene Inc., priority 2007, dated 2013)

These compounds were tested on MKN45 tumor (assay: In vivo solid tumor disease model, MKN45). Conditions: Mus musculus, MKN-45, po, 312 h; MKN45, 20 mg/kg orally daily, 13 days; read-out: Tumor Growth Inhibition (%).
Design: species or system mice

| SMILES | inhibition in vivo at 20 mg/kg |
| --- | --- |
| COCCNCc1cnc(-c2cc3nccc(Oc4ccc(NC(=S)NC(=O)Cc5ccccc5)cc4F)c3s2)n1C [drawing 371] | 50 to 75% |
| COCCNCc1ccc(-c2cc3nccc(Oc4ccc(NC(=O)CC(=O)N(C)c5ccc(F)cc5)cc4F)c3s2)nc1 [drawing 375] | 25 to 50% |

What follows are compounds tested on U87MG tumor (assay: In vivo solid tumor disease model, U87MG). Conditions: Mus musculus, U-87 MG, po, 240 h, 20 mg/kg orally daily, 10 days, read-out: Tumor Growth Inhibition (%).
Design: species or system mice
Text: (§1) This test measures the capacity of compounds to inhibit solid tumor growth.
(§2) Tumor xenografts are established in the flank of female athymic CD1 mice (Charles River Inc.), by subcutaneous injection of 1×106 U87, A431 or SKLMS cells/mouse. Once established, tumors are then serially passaged s.c. in nude mice hosts. Tumor fragments from these host animals are used in subsequent compound evaluation experiments. For compound evaluation experiments female nude mice weighing approximately 20 g are implanted s.c. by surgical implantation with tumor fragments of ˜30 mg from donor tumors. When the tumors are approximately 100 mm3 in size (˜7-10 days following implantation), the animals are randomized and separated into treatment and control groups. Each group contains 6-8 tumor-bearing mice, each of which is ear-tagged and followed individually throughout the experiment.
(§3) Mice are weighed and tumor measurements are taken by calipers three times weekly, starting on Day 1. These tumor measurements are converted to tumor volume by the well-known formula (L+W/4)3 4/3π. The experiment is terminated when the control tumors reach a size of approximately 1500 mm^3. In this model, the change in mean tumor volume for a compound treated group/the change in mean tumor volume of the control group (non-treated or vehicle treated)×100 (ΔT/ΔC) is subtracted from 100 to give the percent tumor growth inhibition (% TGI) for each test compound. In addition to tumor volumes, body weight of animals is monitored twice weekly for up to 3 weeks.

| SMILES | inhibition in vivo at 20 mg/kg |
| --- | --- |
| COCCNCCn1cc(-c2cc3nccc(Oc4ccc(NC(=S)NC(=O)Cc5ccccc5)cc4F)c3s2)cn1 [drawing 367] | 25 to 50% |
| CS(=O)(=O)CCNCc1ccc(-c2cc3nccc(Oc4ccc(NC(=O)C5(C(=O)Nc6ccccc6)CC5)cc4F)c3s2)cc1 [drawing 370] | 50 to 75% |

Same assay, conditions: Mus musculus, U-87 MG, po, 288 h, 20 mg/kg orally daily, 12 days, read-out: Tumor Growth Inhibition (%)

| SMILES | inhibition in vivo at 20 mg/kg |
| --- | --- |
| COCCNCCn1cnc(-c2cc3nccc(Oc4ccc(NC(=S)NC(=O)Cc5ccc(F)cc5)cc4F)c3s2)c1 [drawing 366] | < 25% |

Same assay, conditions: Mus musculus, U-87 MG, po, 312 h, 20 mg/kg orally daily, 13 days, read-out: Tumor Growth Inhibition (%)

| SMILES | inhibition in vivo at 20 mg/kg |
| --- | --- |
| COCCNCc1cccc(-c2cc3nccc(Oc4ccc(NC(=O)C5(C(=O)Nc6ccc(F)cc6)CC5)cc4F)c3s2)n1 | ≥ 75% |

What follows are compounds tested on SKLMS40 tumor (assay: In vivo solid tumor disease model, SKLMS40). Conditions: Mus musculus, po, 312 h; SKLMS40, 20 mg/kg orally daily, 13 days; read-out: Tumor Growth Inhibition (%).
Design: species or system mice
Text: as §1, §2, §3

| SMILES | inhibition in vivo at 20 mg/kg |
| --- | --- |
| COCCNCc1ccc(-c2cc3nccc(Oc4ccc(NC(=O)C5(C(=O)Nc6ccccc6)CC5)cc4F)c3s2)o1 [drawing 368] | 50 to 75% |
| COCCNCc1cnc(-c2cc3nccc(Oc4ccc(NC(=S)NC(=O)Cc5ccccc5)cc4F)c3s2)n1C [drawing 371] | < 25% |

Same assay, conditions: Mus musculus, po, 360 h; SKLMS40, 20 mg/kg orally daily, 15 days; read-out: Tumor Growth Inhibition (%)

| SMILES | inhibition in vivo at 20 mg/kg |
| --- | --- |
| COCCNCc1ccc(-c2cc3nccc(Oc4ccc(NC(=S)NC(=O)Cc5ccc(F)cc5)c(OC)c4)c3s2)nc1 | 25 to 50% |
| COCCNCc1ccc(-c2cc3nccc(Oc4ccc(NC(=O)Nc5cc(C)on5)c(OC)c4)c3s2)nc1 | ≥ 75% |
| COCCNCc1ccc(-c2cc3nccc(Oc4ccc(NC(=O)C5(C(=O)Nc6ccc(F)cc6)CC5)c(OC)c4)c3s2)nc1 | 25 to 50% |

What follows are compounds tested on A549 tumor (assay: In vivo solid tumor disease model, A549). Conditions: A549, 20 mg/kg orally daily, 12 days.
Design: species or system mice

| SMILES | Tumor Growth Inhibition (%) |
| --- | --- |
| COCCNCc1cnc(-c2cc3nccc(Oc4ccc(NC(=S)NC(=O)Cc5ccccc5)cc4F)c3s2)n1C [drawing 371] | B (tumor growth inhibition of ≧25% but <50%) |
| COCCNCc1ccc(-c2cc3nccc(Oc4ccc(NC(=O)CC(=O)N(C)c5ccc(F)cc5)cc4F)c3s2)nc1 [drawing 375] | A (tumor growth inhibition of less than 25%) |

What follows are compounds tested on CNV progression (assay: In vivo choroidal neovascularization (CNV) model, laser-induced). Conditions: Brown-Norway rats, intravitreal injection 30 and/or 100 nmol/eye on Day 1 and/or Day 3 and/or Day 7, CNV area on Day 10.
Text: This test measures the capacity of compounds to inhibit CNV progression. CNV is the main cause of severe vision loss in patients suffering from age-related macular degeneration (AMD).
Male Brown-Norway rats (Japan Clea Co., Ltd.) were used in these studies.
Rats were anesthetized by intraperitoneal injection of pentobarbital, and the right pupil was dilated with 0.5% tropicamide and 0.5% phenylephrine hydrochloride. The right eye received 6 laser burns between retinal vessels using a slit lamp delivery system of Green laser Photocoagulator (Nidex Inc., Japan), and microscope slide glass with Heaton™ (AMO Inc) used as a contact lens. The laser power was 100 or 200 mW for 0.1 second and spot diameter was 100 μm. At the time of laser burn, bubble production was observed, which is an indication of rupture of Bruch's membrane which is important for CNV generation.
Rats were divided into the groups based on their body weight using SAS software (SAS institute Japan, R8.1) after laser irradiation (Day 0). After animals were anesthetized, and the right pupil dilated (as above mentioned), the right eye of the animal received the compound or vehicle by intravitreal injection (5 or 10 μL/eye) at doses of 30 and/or 100 nmol/eyeon Day 1 and/or Day 3 and/or Day 7. The compounds were dissolved or suspended in CBS, PBS, or other adequate vehicles before injection.
On Day 10, the animals were anesthetized with ether, and high molecular weight fluorescein isothiocyanate (FITC)-dextran (SIGMA, 2×10^6 MW) was injected via a tail vein (20 mg/rat). About 30 min after FITC-dextran injection, animals were euthanized by ether or carbon dioxide, and the eyes were removed and fixed with 10% formaline neutral buffer solution. After over 1 hour of fixation, RPE-choroid-sclera flat mounts were obtained by removing cornea, lens and retina from the eyeballs. The flat mounts were mounted in 50% glycerol on a microscope slide, and the portion burned by laser was photographed using a fluorescence microscope (Nikon Corporation, excitation filter:465-495 nm, absorption filter:515-555 nm). The CNV area was obtained by measurement of hyper-fluorescence area observed on the photograph using Scion image.
The average CNV area of 6 burns was used as an individual value of CNV area, and the average CNV area of compound treated group was compared with that of the vehicle-treated group. […]

| SMILES | % Inhibition of CNV Progression |
| --- | --- |
| COCCNCc1cnc(-c2cc3nccc(Oc4ccc(NC(=O)CC(=O)Nc5ccccc5)cc4F)c3s2)n1C [13(49), N^1-(3-Fluoro-4-(2-(5-((2-methoxyethylamino)methyl)-1-methyl-1H-imidazol-2-yl)thieno[3,2-b]pyridin-7-yloxy)phenyl)-N^3-phenylmalonamide] | A (greater than or equal to 30% inhibition) |
| COCCNCc1cnc(-c2cc3nccc(Oc4ccc(NC(=O)CC(=O)N(C)c5ccccc5)cc4F)c3s2)n1C [14(50), N^1-(3-Fluoro-4-(2-(5-((2-methoxyethylamino)methyl)-1-methyl-1H-imidazol-2-yl)thieno[3,2-b]pyridin-7-yloxy)phenyl)-N3-methyl-N^3-phenylmalonamide] | B (≧10% to <30% inhibition) |
| CN(C(=O)CC(=O)Nc1ccc(Oc2ccnc3cc(-c4ccc(CNCCS(C)(=O)=O)cc4)sc23)c(F)c1)c1ccccc1 [80(187), N1-(3-fluoro-4-(2-(4-((2-(methylsulfonyl)ethylamino)methyl)phenyl)thieno[3,2-b]pyridin-7-yloxy)phenyl)-N3-methyl-N3-phenylmalonamide] | A (greater than or equal to 30% inhibition) |
| COCCNCc1ccc(-c2cc3nccc(Oc4ccc(NC(=O)CC(=O)N(C)c5ccccc5)cc4F)c3s2)nc1 [116(223), N1-(3-fluoro-4-(2-(5-((2-methoxyethylamino)methyl)pyridin-2-yl)thieno[3,2-b]pyridin-7-yloxy)phenyl)-N3-methyl-N3-phenylmalonamide] | B (≧10% to <30% inhibition) |
| COCCNCc1ccc(-c2cc3nccc(Oc4ccc(NC(=O)Nc5cc(C(C)(C)C)on5)cc4F)c3s2)nc1 [145(252), 1-(5-tert-butylisoxazol-3-yl)-3-(3-fluoro-4-(2-(5-((2-methoxyethylamino)methyl)pyridin-2-yl)thieno[3,2-b]pyridin-7-yloxy)phenyl)urea] | B (≧10% to <30% inhibition) |
| COCCNCc1ccc(-c2cc3nccc(Oc4ccc(NC(=O)Nc5cc(C(F)(F)F)ccc5F)cc4F)c3s2)nc1 [146(253), 1-(3-fluoro-4-(2-(5-((2-methoxyethylamino)methyl)pyridin-2-yl)thieno[3,2-b]pyridin-7-yloxy)phenyl)-3-(2-fluoro-5-(trifluoromethyl)phenyl)urea] | A (greater than or equal to 30% inhibition) |
| COCCNCc1ccc(-c2cc3nccc(Oc4ccc(NC(=O)Nc5cccc(C)c5)cc4F)c3s2)nc1 [161(268), 1-(3-fluoro-4-(2-(5-((2-methoxyethylamino)methyl)pyridin-2-yl)thieno[3,2-b]pyridin-7-yloxy)phenyl)-3-m-tolylurea] | B (≧10% to <30% inhibition) |
| COCCNCc1cccc(-c2cc3nccc(Oc4ccc(NC(=O)Nc5cc(C)on5)cc4F)c3s2)n1 [162(269), 1-(3-fluoro-4-(2-(6-((2-methoxyethylamino)methyl)pyridin-2-yl)thieno[3,2-b]pyridin-7-yloxy)phenyl)-3-(5-methylisoxazol-3-yl)urea] | A (greater than or equal to 30% inhibition) |
| COCCNCc1cnc(-c2cc3nccc(Oc4ccc(NC(=O)C5(C(=O)Nc6ccc(F)cc6)CC5)cc4F)c3s2)n1C [163(270), N-(3-fluoro-4-(2-(5-((2-methoxyethylamino)methyl)-1-methyl-1H-imidazol-2-yl)thieno[3,2-b]pyridin-7-yloxy)phenyl)-N-(4-fluorophenyl)cyclopropane-1,1-dicarboxamide] | A (greater than or equal to 30% inhibition) |
| C=CCNC(=O)Nc1ccc(Oc2ccnc3cc(-c4ccc(CNCCOC)cn4)sc23)c(F)c1 [167(274), 1-allyl-3-(3-fluoro-4-(2-(5-((2-methoxyethylamino)methyl)pyridin-2-yl)thieno[3,2-b]pyridin-7-yloxy)phenyl)urea] | A (greater than or equal to 30% inhibition) |
| COCCNCc1ccc(-c2cc3nccc(Oc4ccc(NC(=O)NC5CC5)cc4F)c3s2)nc1 [170(277), 1-Cyclopropyl-3-(3-fluoro-4-(2-(5-((2-methoxyethylamino)methyl)pyridin-2-yl)thieno[3,2-b]pyridin-7-yloxy)phenyl)urea] | A (greater than or equal to 30% inhibition) |
| CCOCCNCc1ccc(-c2cc3nccc(Oc4ccc(NC(=O)Nc5cc(C)ccc5F)cc4F)c3s2)nc1 [173(280), 1-(4-(2-(5-((2-ethoxyethylamino)methyl)pyridin-2-yl)thieno[3,2-b]pyridin-7-yloxy)-3-fluorophenyl)-3-(2-fluoro-5-methylphenyl)urea] | A (greater than or equal to 30% inhibition) |
| NCCCOCCOCCOCCCNCc1ccc(-c2cc3nccc(Oc4ccc(NC(=O)Nc5cc(C(F)(F)F)ccc5F)cc4F)c3s2)nc1 [177(284), 1-(4-(2-(5-(15-Amino-6,9,12-trioxa-2-azapentadecyl)pyridin-2-yl)thieno[3,2-b]pyridin-7-yloxy)-3-fluorophenyl)-3-(2-fluoro-5-(trifluoromethyl)phenyl)urea] | A (greater than or equal to 30% inhibition) |
